Read-outs that look alike come from different tables or passages of the source.

Series [1] has as its system PC-3 cells. As to conditions: for apoptosis induction: 10 μmol/L, 24 h. The method, then: (§1) a) Hoechst Staining. Cells were plated in 6-well culture dishes at 5×10^4 cells per/well and at subconfluency were treated with increasing concentrations of DZ-1-23, -38, -40, -42, and -50 (0-25 μM). After 24 and 48 hrs of treatment, cells were fixed with 4% (w/v) paraformaldehyde (Sigma) and stained with 10 μg/mL Hoechst 33342 (B2261; Sigma) in the presence of 0.1% Triton X-100 (Sigma) as previously described. Cells were visualized using a Zeiss Axiovert S100 fluorescent microscope (Thornwood, N.Y.) with a UV filter (365 nm) and cells with condensed chromatin were designated apoptotic (100× magnification). The apoptotic index was determined by counting three random fields in duplicate wells per group. Each experiment was performed twice. b) MTT assay: Subconfluent cultures of cells were exposed to increasing concentrations of DZ-1-23, -38, -40, -42, and -50 (0-25 μM). After treatment the medium was replaced with 250 μl of MTT (Sigma) (1 mg/ml) and incubated at 37° C. to form blue crystals. After 2 hrs the MTT was removed and replaced with DMSO (250 μl) and incubated overnight at 37° C. The DMSO-crystal solution's absorbance was read at 540 nm in a microplate reader (Bio-Tek Instruments, Winooski, VM). Numerical data represent the average of three independent experiments performed in triplicate. Cell Migration Assay. (Wounding assay) Confluent monolayers of PC-3, DU-145, HUVEC, or HMVEC-L cells were wounded with a toothpick. After wounding, medium was changed and DZ-3 or DZ-50 (5 μM). After incubation for 12 or 24 hrs, wounding areas were examined under light microscopy (Axiovert 10, Zeiss). Cells that had migrated to the wounded areas were counted under a microscope for quantification of cell migration. Migration was calculated as the average number of cells observed in five random high power (400×) wounded fields/per well in duplicate wells. Tube Formation Assay: In vitro Angiogenesis Evaluation: In vitro formation of tubular structures was studied on extracellular matrix using an angiogenesis kit as described by the manufacturer (Chemicon International, Inc., Temecula, Calif.). HUVEC or HMVEC-L (10×10^4 cells/well) of 96-well-plates were seeded onto ECMatrigel-coated wells in the presence or absence of DZ-3 or DZ-50 and VEGF. Cells were treated with cytokines as single agents or each in combination (e.g. DZ-50 and VEGF).

In series [2] the test system is endothelial and epithelial cell lines. Nature of the series: Cell viability / cell death evaluation (MTT assay). The format is cell-based, human. Background: Tetrazolium dyes change colour on reduction, which living cells bring about.
A further series relates to HUVEC. Briefly: Tube formation assay (in vitro angiogenesis). It is filed as cell-based, human. The note with it: for vascular endothelial cell tube formation: 10 μmol/L, Matrigel, 24 hrs.
The test system of series [3] is PC-3 cells injected in the tail vein. As to conditions: 200 mg/kg p.o. from 10 d postinoculation, 21 days of treatment, vs untreated control mice. The method, then: Spontaneous Metastasis Assay: Human prostate cells (PC-3) were injected (2×10^6 cells/80 μl of PBS) in the tail vein of male nude mice, 4-6 wks of age; mice were maintained in a pathogen-free environment. At 10 days post-inoculation, 200 mg/kg of DZ-50 was given daily (via oral gavage as described above). After 2 wks of treatment, DZ-50 treated and vehicle control mice were sacrificed and lungs, spleen, kidneys, and prostate organs were excised and subjected to examination for metastatic tumor lesions. Apoptosis Evaluation Apoptotic cells were detected using the ApopTago Peroxidase In Situ Apoptosis Kit (Chemicon, Temecula, Calif.). Briefly, paraffin-embedded sections were treated with Proteinase K (Dako, Carpinteria, Calif.) and were subsequently incubated with terminal deoxynucleotidyl transferase enzyme. Terminal deoxynucleotidyl transferase-mediated deoxyuridine triphosphate nick end labeling (TUNEL)-positive cells were counted in five different fields (400×) and the apoptotic index was determined based on the number of apoptotic cells over the total number of cells. […] CD31-positive endothelial cells were counted in five different fields (400×). Cell Proliferation Cell proliferation index was evaluated on the basis of Ki67 nuclear antigen immunoreactivity. […] Ki67+ cells were counted from five different fields (400×).

For series [4] the following is noted: data not shown.
Series [5] relates to DU-145 human prostate cancer xenografts. The note with it: for CD31+ (vascularity) / Ki67 (proliferation index), % / TUNEL (apoptotic index): DU-145 xenograft. The method, then: (§2) Tumorigenicity Studies. Human prostate cells (PC-3 and DU-145) suspended in PBS, were inoculated subcutaneously (s.c.) (2.5×10^6 cells/site) in the flank of male nude mice, 4-6 weeks of age. Tumors were measured every 48 hrs with a digital caliber, and tumor volumes were calculated using the formula length×(width)^2/2. When tumors reached ≈50 mm^3 mice were stratified into treatment groups of 6 mice/treatment. DZ-50 was administered at doses of 50, 100, and 200 mg/kg in 0.5% methylcellulose (w/v)+0.1% Tween-80 (v/v) in water, by oral gavage using a 22-gauge, 1.5-inch gavage needle. Animals were sacrificed after 2 wks of treatment unless otherwise indicated. In a separate experiment human prostate cells (PC-3) were inoculated as described above and dosing began (200 mg/kg) concurrently for 2 wks. Upon termination of the experiment, tumors were surgically excised and tissue specimens were fixed in a 10% (v/v) formalin solution (Sigma) and subsequently embedded in Paraplast X-tra paraffin (VWR). Blocks were sectioned (6 μm) on a Finesse Microtome (ThermoShandon, UK).
(§3) Spontaneous Metastasis Assay: Human prostate cells (PC-3) were injected (2×10^6 cells/80 μl of PBS) in the tail vein of male nude mice, 4-6 wks of age; mice were maintained in a pathogen-free environment. At 10 days post-inoculation, 200 mg/kg of DZ-50 was given daily (via oral gavage as described above). After 2 wks of treatment, DZ-50 treated and vehicle control mice were sacrificed and lungs, spleen, kidneys, and prostate organs were excised and subjected to examination for metastatic tumor lesions. Apoptosis Evaluation Apoptotic cells were detected using the ApopTago Peroxidase In Situ Apoptosis Kit (Chemicon, Temecula, Calif.). Briefly, paraffin-embedded sections were treated with Proteinase K (Dako, Carpinteria, Calif.) and were subsequently incubated with terminal deoxynucleotidyl transferase enzyme. Terminal deoxynucleotidyl transferase-mediated deoxyuridine triphosphate nick end labeling (TUNEL)-positive cells were counted in five different fields (400×) and the apoptotic index was determined based on the number of apoptotic cells over the total number of cells. Vascularity Evaluation: CD31 staining was performed for endothelial cells using enzymatic digestion with Proteinase K (Dako). The primary antibody used was the mouse anti-human CD31 specific for endothelial cells from Dako (overnight incubation at 4° C.). CD31-positive endothelial cells were counted in five different fields (400×). Cell Proliferation Cell proliferation index was evaluated on the basis of Ki67 nuclear antigen immunoreactivity. Following antigen retrieval slides were incubated with an antibody directed against the Ki67 nuclear antigen (AMAC, Westbrook, Mass.). Ki67+ cells were counted from five different fields (400×).

Series [6] deals with PC-3 human prostate cancer xenografts. As to conditions: for CD31+ (vascularity) / Ki67 (proliferation index), % / TUNEL (apoptotic index): PC-3 xenograft. The protocol:
as §2, §3

Series [7] relates to PC-3 cells on HMVEC-L monolayer. As to conditions: 6 hrs of exposure, non-cytotoxic doses. The protocol:
Sterile (12 mm diameter) glass coverslips were coated with Matrigel (Becton Dickson, Franklin Lakes, N.J.) at a dilution of 1:8 and air dried at room temperature (1 hr). Coverslips received approximately 6.25×10^4 HMVEC-L to form a complete monolayer. The cells were allowed to spread on the Matrigel for 24 hrs prior to the experiment. PC-3 cells were resuspended in EGM-2MV (Cambrex) and added to the HMVEC-L monolayer at a concentration of 8×10^3 cells/coverslip. Co-cultures were incubated at 37° C. at 5% CO2 for 3, 6, 9, 12, and 24 hrs. Prior to the addition of prostate epithelial cells, cells were incubated with the lipophilic tracer 1,1′-dioctadecyl-3,3,3′,3′-tetramethylindocarbocyanine perchlorate (DiI) (Invitrogen, Carlsbad, Calif.) for 20 min at 10 μg/ml to stain cell membranes. To label F-actin, PC-3 cells, or co-cultures of PC-3 cells HMVEC-L were fixed for 10 min at room temperature in 2% paraformaldehyde in PBS, and were permeabilized for 5 min with a buffer containing 15 mM Tris, 120 mM NaCl, 2 mM EDTA, 2 mM EGTA, and 0.5% Triton X-100 (pH 7.4). […] Coverslips were mounted with Vectashield (Vector Laboratories, Burlington, Canada) on glass slides and analyzed with confocal microscopy.

Series [8] concerns HUVEC, HMVEC-L vascular endothelial cells. The note with it: non-cytotoxic doses 5 and 10 μM. The method, then:
as §1

In series [9] the test system is DU-145 cells. As to conditions: non-cytotoxic doses 5 and 10 μM. The protocol: as §1
Series [10] deals with CAM blood vessel development. The note with it: 48 hrs, with VEGF or bFGF. The method, then: Fertilized chicken eggs were incubated at 37° C. At E8 a window was created to allow visualization of the egg shell membrane. 6 mm blank paper discs (BD) were placed on the egg shell membrane along with VEGF (100 ng) or bFGF (100 ng) and DZ-50. The windows were sealed with porous adhesive and allowed to incubate 48 hrs. At E10 the adhesive was removed along with the egg shell membrane to expose the CAM and 4% paraformaldehyde was added. Following excision the number of vessels per CAM was quantified by counting under a dissecting microscope.

Series [11] deals with integrins α2, α3, αV, and β3. The note with it: PC-3 cells, data not shown. The method, then: (§4) FACS—Flow Cytometric Analysis: PC-3 cells were treated with DZ-50 (10 μM) and harvested with 0.5 mM EDTA solution. Prostate cancer epithelial cells were then incubated with hanks balanced salt solution (HBSS) supplemented with 2% BSA and 0.01% sodium azide for 30 min at 4° C. Cells were subsequently fixed in 4% (w/v) formaldehyde, washed, and incubated with the designated integrin antibody followed by FITC-conjugated goat anti-mouse secondary. Analysis was performed on a Partec FlowMax (Partec, Munster, Germany).

The next series concerns integrin β1. As to conditions: 10 μmol/L. The method, then:
as §4

For series [12], the system named is PC-3 cells. As to conditions: 6, 9, and 12 h exposure, 5 and 10 μmol/L. The method, then: (§5) Prostate cancer cells PC-3 and DU-145 cells were treated for 3, 6, 9, 12, or 15 hrs with DZ-50 (5 μM) and harvested. 5×10^4 cells were added to each well of a 6-well culture dish coated with either collagen or fibronectin and incubated for 30 min at 37° C. Following incubation cells were fixed and the number of cells/well recorded. Numerical data represent the average of three independent experiments in triplicate.

In series [13] the test system is DU-145 cells. The protocol:
as §5

On to `COc1cc2nc(N3CCN(S(=O)(=O)c4ccc(-c5ccccc5)cc4)CC3)nc(N)c2cc1OC` [DZ-3], for which the apoptosis induction entry with PC-3 cells [1] is given as “trigger apoptotic cell death”.
Take `COc1cc2nc(N3CCN(S(=O)(=O)c4c(C(C)C)cc(C(C)C)cc4C(C)C)CC3)nc(N)c2cc1OC` [DZ-10, 2-[4-(2,4,6-triisopropylbenzenesulfonyl)-piperazin-1-yl]-6,7-dimethoxyquinazolin-4-yl-amine]: the “effect on cell viability” value in series [2] (negative control compound of the tube formation assay) is reported as “no effect on cell viability”. For the same compound, the “vascular endothelial cell tube formation” value with HUVEC is reported as “does not change the ability of HUVEC cells to form multibranched tubular networks”.
Turning to `CC(C)Oc1cc2nc(N3CCN(S(=O)(=O)c4ccc(-c5ccccc5)cc4)CC3)nc(N)c2cc1OC(C)C` [DZ-50], in series [3], the “number of metastatic foci to the lungs” value was “significant reduction”. Further, the “gross and histological examination of lung, liver, spleen, and prostate” value in series [4] (compared to control animals) is recorded as “no apparent changes”. For the same compound, the “animal's behavioral pattern and weight” value in series [4] was “no change”. Further, the “CD31+ (vascularity)” value in series [5] (100 mg/kg) is 15.1 ± 0.7; in [5] (200 mg/kg) it was 10.1 ± 0.4; in series [6] (100 mg/kg), 13.5 ± 1.9; in [6] (200 mg/kg) it was 6.5 ± 0.6. Besides, the “Ki67 (proliferation index), %” value in series [5] (100 mg/kg) worked out at 53.9%; in [5] (200 mg/kg) it was 49.7%; in series [6] (100 mg/kg), 42.6%; in [6] (200 mg/kg) it was 45.0%. The “TUNEL (apoptotic index)” value in series [5] (100 mg/kg) came out at 3.5 ± 1.0; in series [5] (200 mg/kg) it was 3.4 ± 1.2; in series [6] (100 mg/kg), 2.0 ± 0.8; in series [6] (200 mg/kg), 1.4 ± 0.4. Moreover, the tumor volume result in series [5] (DU-145 xenografts, 200 mg/kg p.o., 14 d after palpable tumor formation) was “significant reduction in tumor volume”; in series [6] (PC-3 xenografts, 200 mg/kg p.o., 14 d after palpable tumor formation), “significant reduction in tumor volume”. In [6] (PC-3 inoculation with simultaneous treatment, 200 mg/kg p.o., 2 wks), the “prostate tumor development (growth initiation)” value is on record as “dramatically suppressed”. Also, the cell viability/cell death result in series [2] (PC-3 and HMVEC-L cells, 10M, first 24 hrs of treatment) is “no effect on cell viability/cell death”. Further, the cell viability result in [2] (endothelial and epithelial cell lines, 24 and 48 hrs, 5-25 μmol/L) is “reduced cell viability”. Besides, in [7], the “attachment of tumor epithelial cells to an endothelial monolayer” value is given as “significantly inhibited”. In addition, in series [8], the endothelial cell migration entry is recorded as “significant inhibition”. The apoptosis induction entry with PC-3 cells [1] is on record as “not effective at inducing apoptosis”. Also, in the series with PC-3 cells [1] (non-cytotoxic doses 5 and 10 μM), the “prostate cancer epithelial cell migration (PC-3)” value was “significant inhibition”. In addition, the “prostate cancer epithelial cell migration (DU-145)” value in the series on DU-145 cells [9] is on record as “significant inhibition”. Also, the “tube formation in the presence of VEGF” value in the series with HUVEC (10 μmol/L with VEGF) is “VEGF cannot reverse the antiangiogenic effect”. Also, in the series with HUVEC, the “vascular endothelial cell tube formation” value was “significantly inhibited”. Also, the “angiogenesis/vascularity (number of blood vessels per CAM)” value in series [10] is recorded as “significant suppression of angiogenesis/vascularity”. The “surface expression of integrins α2, α3, αV, and β3” value in series [11] is reported as “did not effect the surface expression”. Also, in the series with integrin β1 (DU-145 cells, 12 h), the “integrin β1 expression intensity” value is reported as “significantly smaller shift”. In addition, the “integrin β1 surface expression” value in the series on integrin β1 (PC-3 cells, 12-24 hrs) is “undetectable”. In addition, the “attachment of PC-3 cells to fibronectin or collagen” value with PC-3 cells [12] is on record as “reduced the ability of PC-3 cells to attach to either fibronectin or collagen, but this effect was not statistically significant”. For the same compound, the “attachment of DU-145 cells to fibronectin or collagen” value with DU-145 cells [13] is reported as “neither fibronectin nor collagen, was significantly inhibited”.

Source of the values: patent US20090170865A1, “Treatment of Prostate Cancer with Angiogenesis-Targeting Quinazoline-Based Anti-Cancer Compounds” (University of Kentucky Research Foundation, priority 2007, published 2009).
